This data set deals with CCRIS mutagenicity, Ames/micronucleus/aberration tests. Nature of the data set: CCRIS mutagenicity studies.
Where [1] appears, read: Test System: Mouse lymphoma, Strain/Indicator: L5178Y (tk+/tk-), Metabolic Activation: None, Method: Suspension/plate.
Setting [2] is: Test System: Mouse lymphoma, Strain/Indicator: L5178Y (tk+/tk-), Metabolic Activation: Rat, Liver, S-9, Aroclor 1254, Method: Suspension/plate.
[3] abbreviates: Test System: AMES SALMONELLA TYPHIMURIUM, Strain/Indicator: TA98, Metabolic Activation: NONE, Method: PREINCUBATION
Setting [4] is: Test System: AMES SALMONELLA TYPHIMURIUM, Strain/Indicator: TA98, Metabolic Activation: HAMSTER, LIVER, S-9, AROCLOR 1254 (10%), Method: PREINCUBATION
Setting [5] is: Test System: AMES SALMONELLA TYPHIMURIUM, Strain/Indicator: TA98, Metabolic Activation: RAT, LIVER, S-9, AROCLOR 1254 (10%), Method: PREINCUBATION
Where [6] appears, read: Test System: AMES SALMONELLA TYPHIMURIUM, Strain/Indicator: TA100, Metabolic Activation: HAMSTER, LIVER, S-9, AROCLOR 1254 (10%), Method: PREINCUBATION
Setting [7] is: Test System: AMES SALMONELLA TYPHIMURIUM, Strain/Indicator: TA100, Metabolic Activation: NONE, Method: PREINCUBATION
Setting [8] is: Test System: AMES SALMONELLA TYPHIMURIUM, Strain/Indicator: TA100, Metabolic Activation: RAT, LIVER, S-9, AROCLOR 1254 (10%), Method: PREINCUBATION
[9] abbreviates: Test System: AMES SALMONELLA TYPHIMURIUM, Strain/Indicator: TA1535, Metabolic Activation: RAT, LIVER, S-9, AROCLOR 1254 (10%), Method: PREINCUBATION

The source made the active and inactive calls. How the calls were made is not given here.

Consider `C=C1N(C)c2ccccc2C1(C)C`, for which the mutagenic call is “inactive; negative. reevaluation of results: negative” (Test System: MOUSE LYMPHOMA, Strain/Indicator: L5178Y (TK+/TK-), Metabolic Activation: NONE, Method: SUSPENSION/PLATE); “active; positive. reevaluation of results: positive” (Test System: MOUSE LYMPHOMA, Strain/Indicator: L5178Y (TK+/TK-), Metabolic Activation: RAT, LIVER, S-9, AROCLOR 1254, Method: SUSPENSION/PLATE); “inactive; negative” under setting [1]; “active; positive” under setting [2].

Take `Nc1ccc(-c2cc(Cl)c(N)c(Cl)c2)cc1`: the mutagenic call is, setting by setting: (Test System: AMES SALMONELLA TYPHIMURIUM, Strain/Indicator: TA98, Metabolic Activation: HAMSTER, LIVER, S-9, Method: PREINCUBATION) “active; positive”; under setting [3], “inactive; negative”.

As to `O=[N+]([O-])c1ccc(Nc2ccccc2O)c([N+](=O)[O-])c1`, the mutagenic call runs as follows: (Test System: AMES SALMONELLA TYPHIMURIUM, Strain/Indicator: TA97, Metabolic Activation: HAMSTER, LIVER, S-9, AROCLOR 1254 (10%), Method: PREINCUBATION) “active; positive”; (Test System: AMES SALMONELLA TYPHIMURIUM, Strain/Indicator: TA97, Metabolic Activation: NONE, Method: PREINCUBATION) “active; positive”; (Test System: AMES SALMONELLA TYPHIMURIUM, Strain/Indicator: TA97, Metabolic Activation: RAT, LIVER, S-9, AROCLOR 1254 (10%), Method: PREINCUBATION) “active; positive”; under setting [4], “active; positive”; under setting [3], “active; positive”; under setting [5], “active; positive”. Moreover, the mutagenic call reads like this: under setting [6], “active; positive”; under setting [7], “inactive; negative”; under setting [8], “active; positive”; under setting [9], “active; positive”.

Turning to `Nc1cc(S(=O)(=O)O)cc2c1C(=O)/C(=N/Nc1ccc(-c3ccc(N/N=C4/C(=O)c5c(N)cc(S(=O)(=O)O)cc5C=C4S(=O)(=O)O)cc3)cc1)C(S(=O)(=O)O)=C2`, the mutagenic call (End Point: IN VITRO CHROMOSOMAL ABERRATIONS, Test System: CHINESE HAMSTER OVARY CELLS, Metabolic Activation: NONE) is “inactive; negative”; the mutagenic call (End Point: IN VITRO CHROMOSOMAL ABERRATIONS, Test System: CHINESE HAMSTER OVARY CELLS, Metabolic Activation: RAT, LIVER, S-9, AROCLOR 1254) is “inactive; negative”; the mutagenic call (Test System: AMES SALMONELLA TYPHIMURIUM, Strain/Indicator: TA98, Metabolic Activation: HAMSTER, LIVER, S-9, Method: PREINCUBATION (PRIVAL METHOD)) was “active; positive”; the mutagenic call (Test System: AMES SALMONELLA TYPHIMURIUM, Strain/Indicator: TA98, Metabolic Activation: NONE, Method: STANDARD PLATE) is “inactive; negative”; the mutagenic call (Test System: AMES SALMONELLA TYPHIMURIUM, Strain/Indicator: TA98, Metabolic Activation: RAT, LIVER, S-9, PHENOBARBITAL, Method: STANDARD PLATE) was “inactive; negative”; the mutagenic call (Test System: AMES SALMONELLA TYPHIMURIUM, Strain/Indicator: TA100, Metabolic Activation: HAMSTER, LIVER, S-9, Method: PREINCUBATION (PRIVAL METHOD)) is “active; positive”. Besides, the mutagenic call is “active; positive” (Test System: AMES SALMONELLA TYPHIMURIUM, Strain/Indicator: TA100, Metabolic Activation: NONE, Method: STANDARD PLATE); “inactive; negative” (Test System: AMES SALMONELLA TYPHIMURIUM, Strain/Indicator: TA100, Metabolic Activation: RAT, LIVER, S-9, PHENOBARBITAL, Method: STANDARD PLATE); “inactive; negative” (Test System: AMES SALMONELLA TYPHIMURIUM, Strain/Indicator: TA1538, Metabolic Activation: RAT, LIVER, S-9, AROCLOR 1254, Method: STANDARD PLATE); “inactive; negative” under setting [1]; “inactive; equivocal (previous results negative)” under setting [2].

For the molecule `CCN(CC)CC(O)CNc1c2ccc([N+](=O)[O-])cc2nc2cc(OC)c(OC)cc12` (stereo not given), the mutagenic call reads like this: (Test System: Escherichia coli, Strain/Indicator: CC107 (G6 to B7 frameshifts), Metabolic Activation: None, Method: Modified preincubation) “active; positive”; (Test System: Escherichia coli, Strain/Indicator: CC108 (G6 to G5 frameshifts), Metabolic Activation: None, Method: Modified preincubation) “active; positive”; (Test System: Escherichia coli, Strain/Indicator: CC109 (CG5 to CG4 frameshifts), Metabolic Activation: None, Method: Modified preincubation) “active; positive”; (Test System: Escherichia coli, Strain/Indicator: CC111 (A7 to A6 frameshifts), Metabolic Activation: None, Method: Modified preincubation) “inactive; negative”.

As for `COc1ccc([N+](=O)[O-])cc1N=Nc1c(O)c(C(=O)Nc2cccc([N+](=O)[O-])c2)cc2ccccc12`, the mutagenic call under setting [4] is “active; positive”; the mutagenic call under setting [3] was “active; positive”; the mutagenic call under setting [5] is “active; positive”; the mutagenic call under setting [6] was “active; positive”; the mutagenic call under setting [7] was “active; positive”; the mutagenic call under setting [8] is “active; positive”. In addition, the mutagenic call was “inactive; negative” (Test System: AMES SALMONELLA TYPHIMURIUM, Strain/Indicator: TA1535, Metabolic Activation: HAMSTER, LIVER, S-9, AROCLOR 1254 (10%), Method: PREINCUBATION); “inactive; negative” (Test System: AMES SALMONELLA TYPHIMURIUM, Strain/Indicator: TA1535, Metabolic Activation: NONE, Method: PREINCUBATION); “inactive; negative” under setting [9]; “active; positive” (Test System: AMES SALMONELLA TYPHIMURIUM, Strain/Indicator: TA1537, Metabolic Activation: HAMSTER, LIVER, S-9, AROCLOR 1254 (10%), Method: PREINCUBATION); “active; positive” (Test System: AMES SALMONELLA TYPHIMURIUM, Strain/Indicator: TA1537, Metabolic Activation: NONE, Method: PREINCUBATION); “active; positive” (Test System: AMES SALMONELLA TYPHIMURIUM, Strain/Indicator: TA1537, Metabolic Activation: RAT, LIVER, S-9, AROCLOR 1254 (10%), Method: PREINCUBATION).

Consider `Oc1cc(O)c2c(c1)O[C@H](c1ccc(O)c(O)c1)[C@@H](O)C2`, for which the mutagenic call is, setting by setting: (Test System: Ames Salmonella typhimurium, Strain/Indicator: TA102, Metabolic Activation: None, Method: Preincubation) “inactive; negative”; (Test System: Ames Salmonella typhimurium, Strain/Indicator: TA102, Metabolic Activation: Rat, Liver, S-9, Aroclor 1254 in 0.154 M KCl, Method: Preincubation) “inactive; negative”.

As for `O=[N+]([O-])c1ccc2ncccc2c1`, the mutagenic call runs as follows: under setting [3], “active; positive”; (Test System: AMES SALMONELLA TYPHIMURIUM, Strain/Indicator: TA98, Metabolic Activation: RAT, LIVER, S-9, Method: PREINCUBATION) “active; positive”; under setting [7], “active; positive”; (Test System: AMES SALMONELLA TYPHIMURIUM, Strain/Indicator: TA100, Metabolic Activation: RAT, LIVER, S-9, Method: PREINCUBATION) “active; positive”.

For the molecule `Cc1cc2nccnc2c2nc(N)n(C)c12`, the mutagenic call (Test System: AMES SALMONELLA TYPHIMURIUM, Strain/Indicator: TA98, Metabolic Activation: RAT, LIVER, S-9, AROCLOR 1254, Method: STANDARD PLATE) was “active; positive”.

For the origin of these results see PubChem BioAssay AID1259407 (Chemical Carcinogenesis Research Information System (CCRIS), 2018).
